Measurements reported in PMC12606464, “Investigating NFE2L1 activators for targeted protein aggregate clearance: a follow-up study” (RSC Medicinal Chemistry, 2025).

System: chymotrypsin-like activity of the 26S proteasome
Test: Proteasome activity assay in MCF7 cell lysates
Assay type: cell-based
Details: for Geometric mean, Treatment (Control = 1): MCF7, Figure S6
Procedure: Building on previous findings, we investigated how selected RUN compounds influence proteasomal function itself. Specifically, we examined the chymotrypsin-like activity of the 26S proteasome following a 16 hour treatment with 7.5 μM RUN compounds in the HEK293 cell line. […] In addition, two other cell lines, MCF7 and SH-SY5Y, were measured (see the SI, Fig. S6).
Figure S6: RUN compounds enhance chymotrypsin-like activity of the 26S proteasome in […]
Cells were treated with 5 µM RUN compounds for 16 hours, with DMSO (0.5%) as the vehicle control. Proteasome chymotrypsin-like activity was measured in cell lysates at 37 °C. Four independent experiments were conducted. Statistical analysis was performed using ratio paired t-tests corrected for multiple comparisons with the Holm-Šídák's method (α = 0.05). Detailed results of the analysis are shown in Supplementary Table S16. […]
2.7 Proteasome activity assay
The corresponding cell lines (HEK293, MCF7, or SH-SY5Y) were seeded into 6-well plates and allowed to adhere overnight under standard culture conditions. On the following day, HEK293 cells were treated with 7.5 µM RUN compounds, whereas MCF7 and SH-SY5Y cells were treated with 5 µM RUN compounds, for 16 hours each. After treatment, cells were harvested, resuspended in lysis buffer (50 mM HEPES, pH 7.5; 5 mM EDTA; 150 mM NaCl; 2 mM ATP; 1% Triton), and centrifuged at 15,000 rpm for 15 minutes at 4 °C. The resulting lysates (25 µg total protein) were incubated with 200 µM of the fluorogenic substrate Suc-Leu-Leu-Val-Tyr-AMC (Bachem, I1395) in assay buffer (50 mM Tris, pH 8.0; 10 mM MgCl₂; 1 mM ATP; 1 mM DTT) at 37 °C. Free AMC release was detected by measuring fluorescence at 360/460 nm. Results of RUN compounds were compared to the DMSO control using a ratio paired t-test corrected for multiple comparisons with the Holm-Šídák's method (α = 0.05) in GraphPad Prism (v 10.6.1).
2.8 XBP1-endoplasmic reticulum (ER) stress reporter assay […]
Two sets of comparisons: 1) […]
treatment with MG132 inhibitor or RUN compounds with DMSO control, 2) RUN compounds vs MG132, were done by two-way repeated-measures ANOVA with Geisser–Greenhouse correction, followed by Dunnett’s multiple comparisons test with individual variances in […]
HCT116 parental cells (WT) and two independent DDI2 knockout clones (KO 04 and KO 11), in which NFE2L1 activation is impaired, were transiently transfected with plasmids encoding either a non-aggregating EGFP-HttQ23 or an aggregation-prone EGFP-HttQ74 construct using Lipofectamine 2000 (Thermo Fisher Scientific) according to the manufacturer’s

SMILES	Proteasome chymotrypsin-like activity in MCF-7 cells (5 μM, 16 h)	Geometric mean, Treatment (Control = 1)
COc1ccc(/C=C2\CC(NC(=O)C3CCCC3)C/C(=C\c3ccc(OC)c(OC)c3)C2=O)cc1OC (stereo not shown) [RUN-89]	greatest increase	1.38
COc1ccc(/C=C2\CC(NC(=O)c3ccccn3)C/C(=C\c3ccc(OC)c(OC)c3)C2=O)cc1OC (stereo not shown) [RUN-94]	–	1.26
COc1ccc(/C=C2\CC(N)C/C(=C\c3ccc(OC)c(OC)c3)C2=O)cc1OC (stereo not shown) [RUN-81]	–	1.11
